Results: US20210161174A1, “FEED ADDITIVE FOR FARMED ANIMALS” (ADISSEO FRANCE S.A.S., priority 2018, published 2021)

Assay: Example 1: broiler performance (body weight, gain, feed intake, FCR), PQQ in diet, 0 to 49 days
Assay type: in vivo, Broiler Chicken (Ross 708)
Text: Study Animals: • Animal: Broiler Chicken • Breed/Strain: Ross 708 • Description: Day-of-hatch male chicks, sexed at hatchery • Sex: Male Total number of treatments: 4 Total number of replicates per treatment: 12 Total number of chicks per replicate: 40 Initial age: day-of-hatch: 0 days-of-age Final age: 7 weeks: 49 days-of-age. Feed will be changed based on the days of each phase. • Starter feed will be weighed out and fed from day 0 to 14. On day 14, non-consumed starter feed will be weighed by pen and discarded. • Grower feed will be weighed, issued and fed from day 14 until 28. On day 28, non-consumed grower feed will be weighed by pen and discarded. • Finisher feed will be weighed, issued and fed from day 28 until 42. On day 42, non-consumed finisher feed will be weighed by pen and discarded. • Withdraw feed will be weighed, issued and fed from day 42 until 49. On day 49, non-consumed finisher feed will be weighed by pen and discarded. Performance: Feed consumption and pen weights are determined on days 0, 14, 21, 28, 35, 42 and 49 to calculate average body weight (BW), body weight gain (BWG) and feed conversion ratio (FCR). Final bird weights: At the end of the grow-out period (Day 49), all birds are weighed, as well as any and all remaining feed. Randomized Complete Block Design with 4 treatments×12 replicates/treatment (40 birds/pen), randomized within blocks across the barn to minimize differences in environmental condition. The pen is the experimental unit. Dietary Treatments • Control (NC, negative control without PQQ) • 0.5 ppm PQQ • 1 ppm PQQ • 2 ppm PQQ The results are presented in the following tables 1-4 for broilers fed diets from the first week to the seventh week (corresponding to 0 to 49 days of age). The values are means and SD is standard variation. The feed conversion ratio is the ratio between feed intake and body weight gain.

O=C(O)c1cc(C(=O)O)c2c(n1)C(=O)C(=O)c1cc(C(=O)O)[nH]c1-2 [PQQ, pyrroloquinoline quinone]
body weight (0.5 ppm PQQ, wk 1): 0.139 kg | feed conversion ratio (FCR) (0.5 ppm PQQ, wk 1): 1.491 | feed intake (0.5 ppm PQQ, wk 1): 0.142 kg | weekly body weight gain (0.5 ppm PQQ, wk 1): 0.095 kg | body weight (0.5 ppm PQQ, wk 2): 0.355 kg | feed conversion ratio (FCR) (0.5 ppm PQQ, wk 2): 1.400 | feed intake (0.5 ppm PQQ, wk 2): 0.299 kg | weekly body weight gain (0.5 ppm PQQ, wk 2): 0.215 kg | body weight (0.5 ppm PQQ, wk 3): 0.763 kg | feed conversion ratio (FCR) (0.5 ppm PQQ, wk 3): 1.623 | feed intake (0.5 ppm PQQ, wk 3): 0.671 kg | weekly body weight gain (0.5 ppm PQQ, wk 3): 0.414 kg | body weight (0.5 ppm PQQ, wk 4): 1.286 kg | feed conversion ratio (FCR) (0.5 ppm PQQ, wk 4): 1.435 | feed intake (0.5 ppm PQQ, wk 4): 0.796 kg | weekly body weight gain (0.5 ppm PQQ, wk 4): 0.556 kg | body weight (0.5 ppm PQQ, wk 5): 2.042 kg | feed conversion ratio (FCR) (0.5 ppm PQQ, wk 5): 1.617 | feed intake (0.5 ppm PQQ, wk 5): 1.139 kg | weekly body weight gain (0.5 ppm PQQ, wk 5): 0.688 kg | body weight (0.5 ppm PQQ, wk 6): 2.808 kg | feed conversion ratio (FCR) (0.5 ppm PQQ, wk 6): 1.755 | feed intake (0.5 ppm PQQ, wk 6): 1.346 kg | weekly body weight gain (0.5 ppm PQQ, wk 6): 0.767 kg | body weight (0.5 ppm PQQ, wk 7): 3.416 kg | feed conversion ratio (FCR) (0.5 ppm PQQ, wk 7): 1.603 | feed intake (0.5 ppm PQQ, wk 7): 0.986 kg | weekly body weight gain (0.5 ppm PQQ, wk 7): 0.622 kg | influence on the body weight (0.5 ppm, as from the second week): positive influence | body weight (1.0 ppm PQQ, wk 1): 0.145 kg | feed conversion ratio (FCR) (1.0 ppm PQQ, wk 1): 1.514 | feed intake (1.0 ppm PQQ, wk 1): 0.151 kg | weekly body weight gain (1.0 ppm PQQ, wk 1): 0.100 kg | body weight (1.0 ppm PQQ, wk 2): 0.371 kg | feed conversion ratio (FCR) (1.0 ppm PQQ, wk 2): 1.418 | feed intake (1.0 ppm PQQ, wk 2): 0.315 kg | weekly body weight gain (1.0 ppm PQQ, wk 2): 0.225 kg | body weight (1.0 ppm PQQ, wk 3): 0.790 kg | feed conversion ratio (FCR) (1.0 ppm PQQ, wk 3): 1.619 | feed intake (1.0 ppm PQQ, wk 3): 0.678 kg | weekly body weight gain (1.0 ppm PQQ, wk 3): 0.419 kg | body weight (1.0 ppm PQQ, wk 4): 1.329 kg | feed conversion ratio (FCR) (1.0 ppm PQQ, wk 4): 1.427 | feed intake (1.0 ppm PQQ, wk 4): 0.816 kg | weekly body weight gain (1.0 ppm PQQ, wk 4): 0.573 kg | body weight (1.0 ppm PQQ, wk 5): 2.112 kg | feed conversion ratio (FCR) (1.0 ppm PQQ, wk 5): 1.608 | feed intake (1.0 ppm PQQ, wk 5): 1.161 kg | weekly body weight gain (1.0 ppm PQQ, wk 5): 0.723 kg | body weight (1.0 ppm PQQ, wk 6): 2.927 kg | feed conversion ratio (FCR) (1.0 ppm PQQ, wk 6): 1.741 | feed intake (1.0 ppm PQQ, wk 6): 1.370 kg | weekly body weight gain (1.0 ppm PQQ, wk 6): 0.787 kg | body weight (1.0 ppm PQQ, wk 7): 3.612 kg | feed conversion ratio (FCR) (1.0 ppm PQQ, wk 7): 1.616 | feed intake (1.0 ppm PQQ, wk 7): 1.106 kg | weekly body weight gain (1.0 ppm PQQ, wk 7): 0.686 kg | influence on the body weight (1 ppm and 2 ppm, as from the first week up to the end of the assay): positive influence | body weight (2.0 ppm PQQ, wk 1): 0.146 kg | feed conversion ratio (FCR) (2.0 ppm PQQ, wk 1): 1.406 | feed intake (2.0 ppm PQQ, wk 1): 0.142 kg | weekly body weight gain (2.0 ppm PQQ, wk 1): 0.102 kg | body weight (2.0 ppm PQQ, wk 2): 0.373 kg | feed conversion ratio (FCR) (2.0 ppm PQQ, wk 2): 1.414 | feed intake (2.0 ppm PQQ, wk 2): 0.315 kg | weekly body weight gain (2.0 ppm PQQ, wk 2): 0.224 kg | body weight (2.0 ppm PQQ, wk 3): 0.794 kg | feed conversion ratio (FCR) (2.0 ppm PQQ, wk 3): 1.608 | feed intake (2.0 ppm PQQ, wk 3): 0.645 kg | weekly body weight gain (2.0 ppm PQQ, wk 3): 0.425 kg | body weight (2.0 ppm PQQ, wk 4): 1.331 kg | feed conversion ratio (FCR) (2.0 ppm PQQ, wk 4): 1.469 | feed intake (2.0 ppm PQQ, wk 4): 0.813 kg | weekly body weight gain (2.0 ppm PQQ, wk 4): 0.548 kg | body weight (2.0 ppm PQQ, wk 5): 2.065 kg | feed conversion ratio (FCR) (2.0 ppm PQQ, wk 5): 1.605 | feed intake (2.0 ppm PQQ, wk 5): 1.141 kg | weekly body weight gain (2.0 ppm PQQ, wk 5): 0.727 kg | body weight (2.0 ppm PQQ, wk 6): 2.835 kg | feed conversion ratio (FCR) (2.0 ppm PQQ, wk 6): 1.741 | feed intake (2.0 ppm PQQ, wk 6): 1.336 kg | weekly body weight gain (2.0 ppm PQQ, wk 6): 0.77 kg | body weight (2.0 ppm PQQ, wk 7): 3.472 kg | feed conversion ratio (FCR) (2.0 ppm PQQ, wk 7): 1.615 | feed intake (2.0 ppm PQQ, wk 7): 1.041 kg | weekly body weight gain (2.0 ppm PQQ, wk 7): 0.648 kg | influence on the feed intake (as from a concentration of 1 ppm): has an influence on the feed intake
